ChEMBL document CHEMBL4364283 (J Med Chem, 2019)
Active and inactive are the calls of the source. The calls are words filed in the database; no cut-off is given here.

How the values were obtained:
Menin [1] = biological target: T1, Menin (Homo sapiens, UniProt O00255); experiment: Binding affinity to human Menin expressed in Escherichia coli Rosetta2 (DE3) cells by isothermal titration calorimetry
T1 sequence (O00255 whole entry): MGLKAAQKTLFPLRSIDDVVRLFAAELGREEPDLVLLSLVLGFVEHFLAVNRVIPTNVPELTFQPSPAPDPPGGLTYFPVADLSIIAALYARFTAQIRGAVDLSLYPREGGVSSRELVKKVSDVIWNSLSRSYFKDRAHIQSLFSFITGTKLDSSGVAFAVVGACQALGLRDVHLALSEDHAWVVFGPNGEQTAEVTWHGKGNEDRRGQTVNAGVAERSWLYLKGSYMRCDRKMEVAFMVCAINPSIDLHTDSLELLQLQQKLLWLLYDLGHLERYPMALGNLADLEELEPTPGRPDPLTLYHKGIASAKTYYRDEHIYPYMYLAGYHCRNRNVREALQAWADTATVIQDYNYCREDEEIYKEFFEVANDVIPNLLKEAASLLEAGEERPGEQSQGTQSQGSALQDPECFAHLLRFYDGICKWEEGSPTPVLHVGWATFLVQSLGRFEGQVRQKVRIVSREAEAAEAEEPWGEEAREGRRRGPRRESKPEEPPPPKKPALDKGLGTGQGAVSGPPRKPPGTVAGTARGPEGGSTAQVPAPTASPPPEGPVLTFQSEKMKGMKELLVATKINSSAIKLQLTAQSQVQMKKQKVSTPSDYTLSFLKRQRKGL

Menin [2] = biological target: T1, Menin; experiment: Inhibition of FAM-probe binding to Menin (unknown origin) after 60 mins by fluorescence polarization competitive binding assay
MV4-11 [3] = experiment: cells; conditions: Homo sapiens, MV4-11, 96 h
[4] = biological target: T2, Menin/Histone-lysine N-methyltransferase MLL (Homo sapiens) (UniProt O00255+Q03164); conditions: 30 to 300 nM
[5] = biological target: T2, Menin/Histone-lysine N-methyltransferase MLL (Homo sapiens); conditions: 100 nM
Mus musculus [6] = experiment: Downregulation of Hoxa9 expression in tumors of mouse xenografted with human MV411 cells at 50 mg/kg , ip administered daily for 3 days and measured after 6 to 48 hrs by RT-qPCR analysis; format: functional, organism-based
Menin [7] = biological target: T1, Menin
[8] = biological target: T2, Menin/Histone-lysine N-methyltransferase MLL (Homo sapiens); conditions: 100 nM; remark: listed apart in the source
MV4-11 [9] = experiment: Induction of differentiation in human MV4-11 cells assessed as increase in CD11b positive cells after 48 hrs by phycoerythrin staining-based flow cytometric analysis; format: functional, cell-based
[10] = biological target: T2, Menin/Histone-lysine N-methyltransferase MLL (Homo sapiens); conditions: 30 to 300 nM; remark: listed apart in the source
MV4-11 [11] = experiment: Induction of differentiation in human MV4-11 cells assessed as increase in CD11b positive cells at 0.03 to 3 uM after 24 hrs by phycoerythrin staining-based flow cytometric analysis; format: functional, cell-based
Mus musculus [12] = experiment: Downregulation of MEIS1 expression in tumors of mouse xenografted with human MV411 cells at 50 mg/kg , ip administered daily for 3 days and measured after 6 to 48 hrs by RT-qPCR analysis; format: functional, organism-based
Menin [13] = biological target: Menin (Homo sapiens, UniProt O00255); experiment: Inhibition of fluorescent probe binding to Menin (2 to 610 residues containing deletion from 460-519) (unknown origin) after 60 mins by fluorescence polarization competitive binding assay
[14] = Solubility of the compound; format: physicochemical
HL-60 = experiment: Growth inhibition of human HL60 cells after 4 days by WST-8 assay; format: functional, cell-based; conditions: HL-60, 96 h
MOLM-13 = experiment: Growth inhibition of human MOLM13 cells after 4 days by WST-8 assay; format: functional, cell-based; conditions: MOLM-13, 96 h

T2 sequence (Q03164 1-2718 partner limits assumed, one chain of several): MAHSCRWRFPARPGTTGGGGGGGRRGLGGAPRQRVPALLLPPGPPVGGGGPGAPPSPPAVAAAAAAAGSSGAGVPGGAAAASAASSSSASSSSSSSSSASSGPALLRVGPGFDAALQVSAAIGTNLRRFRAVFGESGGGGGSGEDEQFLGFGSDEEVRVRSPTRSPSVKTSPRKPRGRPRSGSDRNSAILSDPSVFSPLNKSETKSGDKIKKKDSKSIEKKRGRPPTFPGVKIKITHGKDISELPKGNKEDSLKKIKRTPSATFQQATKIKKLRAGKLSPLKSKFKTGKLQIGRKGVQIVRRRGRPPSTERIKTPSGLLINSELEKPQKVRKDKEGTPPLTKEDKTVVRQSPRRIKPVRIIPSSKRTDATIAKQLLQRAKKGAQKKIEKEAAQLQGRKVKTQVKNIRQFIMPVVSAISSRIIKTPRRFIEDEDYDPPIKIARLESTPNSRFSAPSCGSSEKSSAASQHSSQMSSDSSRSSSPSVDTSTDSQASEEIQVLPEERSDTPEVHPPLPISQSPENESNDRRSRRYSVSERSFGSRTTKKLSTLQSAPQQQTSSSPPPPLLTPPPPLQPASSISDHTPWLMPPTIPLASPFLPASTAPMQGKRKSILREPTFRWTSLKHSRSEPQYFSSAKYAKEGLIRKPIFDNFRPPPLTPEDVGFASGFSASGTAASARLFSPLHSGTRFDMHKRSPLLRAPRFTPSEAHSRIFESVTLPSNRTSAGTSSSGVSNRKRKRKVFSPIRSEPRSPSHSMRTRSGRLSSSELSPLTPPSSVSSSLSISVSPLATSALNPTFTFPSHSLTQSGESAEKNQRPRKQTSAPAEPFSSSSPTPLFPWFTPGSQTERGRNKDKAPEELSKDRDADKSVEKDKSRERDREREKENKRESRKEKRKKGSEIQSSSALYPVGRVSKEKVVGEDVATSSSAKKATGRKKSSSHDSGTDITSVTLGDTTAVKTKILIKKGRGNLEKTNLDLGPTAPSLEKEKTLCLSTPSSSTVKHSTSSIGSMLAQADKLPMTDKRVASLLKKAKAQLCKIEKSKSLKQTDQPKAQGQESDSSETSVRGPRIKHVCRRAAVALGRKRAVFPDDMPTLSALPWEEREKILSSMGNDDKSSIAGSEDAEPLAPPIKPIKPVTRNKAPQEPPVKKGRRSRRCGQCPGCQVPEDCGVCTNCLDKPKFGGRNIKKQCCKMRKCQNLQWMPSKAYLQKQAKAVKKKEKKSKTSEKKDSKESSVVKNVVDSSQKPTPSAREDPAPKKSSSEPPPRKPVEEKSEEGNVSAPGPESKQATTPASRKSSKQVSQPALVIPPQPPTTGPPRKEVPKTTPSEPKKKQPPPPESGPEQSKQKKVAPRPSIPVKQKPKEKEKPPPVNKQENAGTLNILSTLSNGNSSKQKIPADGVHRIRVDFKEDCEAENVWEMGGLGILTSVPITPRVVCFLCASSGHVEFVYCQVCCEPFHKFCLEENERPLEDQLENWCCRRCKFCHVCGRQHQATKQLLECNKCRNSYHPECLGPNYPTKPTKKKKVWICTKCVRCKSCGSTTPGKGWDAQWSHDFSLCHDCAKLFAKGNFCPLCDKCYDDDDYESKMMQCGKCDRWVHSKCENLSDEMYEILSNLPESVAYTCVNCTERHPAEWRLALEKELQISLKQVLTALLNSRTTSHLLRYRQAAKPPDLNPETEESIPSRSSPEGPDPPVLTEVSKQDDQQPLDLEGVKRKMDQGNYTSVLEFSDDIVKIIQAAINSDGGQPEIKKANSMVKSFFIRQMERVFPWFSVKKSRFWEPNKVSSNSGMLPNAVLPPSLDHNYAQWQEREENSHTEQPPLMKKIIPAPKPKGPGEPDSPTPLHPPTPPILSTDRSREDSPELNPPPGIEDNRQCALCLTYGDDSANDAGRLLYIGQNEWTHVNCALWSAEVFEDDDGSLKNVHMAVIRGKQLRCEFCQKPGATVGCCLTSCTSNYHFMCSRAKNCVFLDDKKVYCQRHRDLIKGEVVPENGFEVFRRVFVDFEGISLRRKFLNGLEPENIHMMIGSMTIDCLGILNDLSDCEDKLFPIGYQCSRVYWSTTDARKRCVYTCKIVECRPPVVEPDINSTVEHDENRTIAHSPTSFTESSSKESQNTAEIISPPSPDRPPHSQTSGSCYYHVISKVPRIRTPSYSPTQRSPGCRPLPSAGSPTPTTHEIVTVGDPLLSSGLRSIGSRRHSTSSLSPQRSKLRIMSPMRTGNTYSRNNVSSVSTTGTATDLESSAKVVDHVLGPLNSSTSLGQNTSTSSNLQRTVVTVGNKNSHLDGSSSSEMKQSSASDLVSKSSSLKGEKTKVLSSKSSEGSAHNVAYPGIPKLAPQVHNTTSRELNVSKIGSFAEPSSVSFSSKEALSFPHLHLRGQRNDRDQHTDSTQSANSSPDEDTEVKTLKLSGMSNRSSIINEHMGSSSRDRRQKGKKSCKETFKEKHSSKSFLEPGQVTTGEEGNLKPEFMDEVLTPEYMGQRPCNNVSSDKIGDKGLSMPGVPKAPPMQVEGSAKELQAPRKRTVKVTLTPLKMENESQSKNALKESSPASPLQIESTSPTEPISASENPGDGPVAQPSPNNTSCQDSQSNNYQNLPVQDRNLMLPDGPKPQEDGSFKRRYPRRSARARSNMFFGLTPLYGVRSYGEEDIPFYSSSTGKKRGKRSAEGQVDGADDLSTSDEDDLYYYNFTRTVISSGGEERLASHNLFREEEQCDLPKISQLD
T2 sequence (Q03164 2719-3969 partner limits assumed, one chain of several): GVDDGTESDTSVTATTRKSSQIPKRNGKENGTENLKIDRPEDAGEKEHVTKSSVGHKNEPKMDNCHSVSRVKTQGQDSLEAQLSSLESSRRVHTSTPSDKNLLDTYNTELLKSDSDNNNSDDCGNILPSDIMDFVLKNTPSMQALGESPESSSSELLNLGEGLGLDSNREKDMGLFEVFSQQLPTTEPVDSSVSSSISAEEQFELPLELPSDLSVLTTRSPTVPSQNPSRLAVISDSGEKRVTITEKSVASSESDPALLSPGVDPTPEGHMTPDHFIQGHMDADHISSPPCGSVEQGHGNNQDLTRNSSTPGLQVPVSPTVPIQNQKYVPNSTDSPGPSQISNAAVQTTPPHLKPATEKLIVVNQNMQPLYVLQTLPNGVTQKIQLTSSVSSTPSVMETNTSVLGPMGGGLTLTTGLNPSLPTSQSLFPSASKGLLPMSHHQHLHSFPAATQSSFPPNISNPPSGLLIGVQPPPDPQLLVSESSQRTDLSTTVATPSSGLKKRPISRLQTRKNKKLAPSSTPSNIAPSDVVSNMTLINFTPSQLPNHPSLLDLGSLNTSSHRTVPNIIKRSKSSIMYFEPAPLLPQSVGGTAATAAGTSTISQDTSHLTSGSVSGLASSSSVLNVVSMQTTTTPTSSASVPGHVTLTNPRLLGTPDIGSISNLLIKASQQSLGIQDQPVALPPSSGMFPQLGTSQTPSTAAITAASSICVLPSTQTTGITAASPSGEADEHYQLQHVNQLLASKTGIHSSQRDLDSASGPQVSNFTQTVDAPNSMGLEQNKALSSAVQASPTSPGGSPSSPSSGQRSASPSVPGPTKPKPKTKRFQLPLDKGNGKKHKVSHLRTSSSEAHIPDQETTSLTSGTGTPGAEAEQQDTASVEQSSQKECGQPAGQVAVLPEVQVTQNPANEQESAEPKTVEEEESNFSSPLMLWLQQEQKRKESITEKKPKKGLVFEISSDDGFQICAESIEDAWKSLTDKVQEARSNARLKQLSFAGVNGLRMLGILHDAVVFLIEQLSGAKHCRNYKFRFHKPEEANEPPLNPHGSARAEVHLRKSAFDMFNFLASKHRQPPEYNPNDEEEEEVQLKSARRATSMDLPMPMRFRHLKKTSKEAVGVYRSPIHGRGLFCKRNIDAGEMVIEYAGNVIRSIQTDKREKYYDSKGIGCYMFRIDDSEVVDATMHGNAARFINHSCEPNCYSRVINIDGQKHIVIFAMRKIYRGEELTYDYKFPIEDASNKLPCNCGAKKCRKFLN

Row | Structure (SMILES) | Ki (Menin [2]) | IC50 (MV4-11 [3]) | IC50 (Menin [2]) | other results
1 | N#Cc1cc2cc(CN3CCC(Nc4ncnc5sc(CC(F)(F)F)cc45)CC3)c(O)cc2n1Cc1cn[nH]c1 |  |  |  | Kd (Menin [1]): 10 nM
2 | O=S(=O)(c1ccncc1)c1ccc(N2CC(CN3CCC(C4(C5CCCC5)CN(CCN5CCOCC5)Cc5ccccc54)CC3)C2)cc1 (configuration not stated) | 2.7 nM | 1550 nM |  | 
3 | CCN1Cc2ccccc2C(C2CCCC2)(C2CCN(CC3CN(c4ccc(S(=O)(=O)c5ccncc5)cc4)C3)CC2)C1 (configuration not stated) | 1 nM | 840 nM |  | 
4 | O=S(=O)(c1ccc(N2CC(CN3CCC(C4(C5CCCC5)NCCc5ccccc54)CC3)C2)cc1)C1CCC1 (configuration not stated) | 11 nM | 1700 nM |  | 
5 | CNC(=O)O[C@H]1CCC[C@@H]1[C@](C#N)(c1ccccc1)C1CCN(CC2CN(c3ccc(C#N)cc3)C2)CC1 (mixture of isomers) | 2.7 nM | 300 nM | 11 nM | 
6 | N#Cc1ccc(N2CCC(N3CCC(C4(C5CCCC5)NCCc5ccccc54)CC3)CC2)cc1 (configuration not stated) | 207 nM | 6330 nM | 650 nM | 
7 | N#Cc1ccc(OCCCN2CCC(C3(C4CCCC4)NCCc4ccccc43)CC2)cc1 (configuration not stated) |  | 1400 nM |  | 
8 | CCO[C@H]1CCC[C@@H]1[C@](C#N)(c1ccccc1)C1CCN(CC2CN(c3ccc(C#N)cc3)C2)CC1 (racemic) | 1700 nM | 4300 nM | 5400 nM | 
9 | O=S(=O)(c1ccc(N2CC(CN3CCC(C4(C5CCCC5)NCCc5ccccc54)CC3)C2)cc1)C1CCCC1 (configuration not stated) | 4.6 nM | 900 nM | 17 nM | 
10 | CNC(=O)O[C@H]1CCC[C@@H]1[C@]1(C2CCN(CC3CN(c4ccc(S(=O)(=O)c5ccncc5)cc4)C3)CC2)CN(C)Cc2ccccc21 (mixture of isomers) | < 1 nM |  | 5 nM | inhibition [4]: Active; inhibition [5]: Active; Activity (Mus musculus [6]): Active; Kd (Menin [7]): 1.4 nM; inhibition [8]: Active; Activity (MV4-11 [9]): Dose-dependent effect; inhibition [10]: Active; Activity (MV4-11 [11]): Active; Activity (Mus musculus [12]): Active
11 | N#Cc1ccc(OCCN2CCC(C3(C4CCCC4)NCCc4ccccc43)CC2)cc1 (configuration not stated) | 5500 nM | 1800 nM | 21200 nM | 
12 | CCS(=O)(=O)c1ccc(N2CC(CN3CCC(C4(C5CCCC5)NCCc5ccccc54)CC3)C2)cc1 (configuration not stated) | 10 nM | 2100 nM | 34 nM | 
13 | CC(=O)O[C@H]1CCC[C@@H]1[C@](C#N)(c1ccccc1)C1CCN(CC2CN(c3ccc(C#N)cc3)C2)CC1 (mixture of isomers) | 12 nM | 1700 nM | 40 nM | 
14 | CC(C)N1Cc2ccccc2C(C2CCCC2)(C2CCN(CC3CN(c4ccc(S(=O)(=O)c5ccncc5)cc4)C3)CC2)C1 (configuration not stated) | 1.4 nM | 910 nM |  | 
15 | O=S(=O)(c1ccncc1)c1ccc(N2CC(CN3CCC(C4(C5CCCC5)CN(Cc5ccncc5)Cc5ccccc54)CC3)C2)cc1 (configuration not stated) | 361 nM | 1330 nM |  | 
16 | N#Cc1ccc(N2CCC(CN3CCC(C4(C5CCCC5)NCCc5ccccc54)CC3)C2)cc1 (configuration not stated) | 27 nM | 2400 nM | 88 nM | 
17 | N#Cc1ccc(N2CCCC(CN3CCC(C4(C5CCCC5)NCCc5ccccc54)CC3)C2)cc1 (configuration not stated) | 2130 nM |  | 6600 nM | 
18 | O=S(=O)(c1ccncc1)c1ccc(N2CC(CN3CCC(C4(C5CCCC5)CN(CC5COC5)Cc5ccccc54)CC3)C2)cc1 (configuration not stated) | 7 nM | 1570 nM |  | 
19 | O=S(=O)(c1ccccc1)c1ccc(N2CC(CN3CCC(C4(C5CCCC5)NCCc5ccccc54)CC3)C2)cc1 (configuration not stated) | 5.6 nM | 500 nM | 20 nM | 

Row | Structure (SMILES) | Ki (Menin [2]) | IC50 (MV4-11 [3]) | IC50 (Menin [2]) | other results
20 | N#Cc1ccc(OCCCCN2CCC(C3(C4CCCC4)NCCc4ccccc43)CC2)cc1 (configuration not stated) | 1300 nM | 500 nM | 5000 nM | 
21 | Cc1c(CN2CCC(Nc3ncnc4sc(CC(F)(F)F)cc34)CC2)ccc2c1cc(C#N)n2Cc1cn[nH]c1 |  |  |  | Kd (Menin [1]): 10 nM
22 | COC(=O)N[C@H]1CCC[C@@H]1[C@](C#N)(c1cccc(F)c1)C1CCN(CC2CN(c3ccc(S(=O)(=O)C4CN(C(=O)/C=C/CN(C)C)C4)cc3)C2)CC1 |  |  |  | IC50 (Menin [13]): 3 nM
23 | O=S(=O)(c1ccncc1)c1ccc(N2CC(CN3CCC(C4(C5CCCC5)NCCc5ccccc54)CC3)C2)cc1 (configuration not stated) | 4.6 nM | 1300 nM | 17 nM | solubility [14]: Soluble
24 | CS(=O)(=O)c1ccc(N2CC(CN3CCC(C4(C5CCCC5)NCCc5ccccc54)CC3)C2)cc1 (configuration not stated) | 45 nM | 4430 nM | 143 nM | 
25 | N#Cc1ccc(N2CC(CN3CCC(C(C#N)(c4ccccc4)C4CCCC4)CC3)C2)cc1 (racemic) | 960 nM | 16900 nM | 3000 nM | 
26 | CN1Cc2ccccc2C(C2CCCC2)(C2CCN(CC3CN(c4ccc(S(=O)(=O)c5ccncc5)cc4)C3)CC2)C1 (configuration not stated) |  |  | 11 nM | IC50 (HL-60): 2500 nM; IC50 (MOLM-13): 4300 nM
27 | O=S(=O)(c1ccncc1)c1ccc(N2CC(CN3CCC(C4(C5CCCC5)CNCc5ccccc54)CC3)C2)cc1 (configuration not stated) | 1.7 nM | 980 nM |  | 
28 | CC(=O)O[C@@H]1CCC[C@H]1[C@](C#N)(c1ccccc1)C1CCN(CC2CN(c3ccc(C#N)cc3)C2)CC1 (relative stereo) |  | 14300 nM |  | 
29 | CCC(=O)O[C@H]1CCC[C@@H]1[C@](C#N)(c1ccccc1)C1CCN(CC2CN(c3ccc(C#N)cc3)C2)CC1 (mixture of isomers) | 9.7 nM | 2200 nM | 33 nM | 
30 | O=S(=O)(c1ccncc1)c1ccc(N2CC(CN3CCC(C4(C5CCCC5)CN(CC5CC5)Cc5ccccc54)CC3)C2)cc1 (configuration not stated) | 1.4 nM | 1370 nM |  | 
31 | CC(C)S(=O)(=O)c1ccc(N2CC(CN3CCC(C4(C5CCCC5)NCCc5ccccc54)CC3)C2)cc1 (configuration not stated) | 21 nM | 1100 nM |  | 
32 | O=S(=O)(c1ccc(N2CC(CN3CCC(C4(C5CCCC5)NCCc5ccccc54)CC3)C2)cc1)C1CC1 (configuration not stated) | 7 nM | 1200 nM |  | 
33 | CCCC(=O)O[C@H]1CCC[C@@H]1[C@](C#N)(c1ccccc1)C1CCN(CC2CN(c3ccc(C#N)cc3)C2)CC1 (mixture of isomers) | 350 nM | 10700 nM | 1100 nM | 
34 | O=S(=O)(c1ccncc1)c1ccc(N2CC(CN3CCC(C4(C5CCCC5)CN(C5CCC5)Cc5ccccc54)CC3)C2)cc1 (configuration not stated) | 2 nM | 900 nM |  | 
35 | N#Cc1ccc(N2CC(CN3CCC(C4(C5CCCC5)NCCc5ccccc54)CC3)C2)cc1 (configuration not stated) | 11 nM | 1300 nM |  | 
36 | O=S(=O)(c1ccc(N2CC(CN3CCC(C4(C5CCCC5)NCCc5ccccc54)CC3)C2)cc1)C1CCCCC1 (configuration not stated) | 2.4 nM | 1100 nM | 10 nM | 
37 | CC(=O)N[C@H]1CCC[C@@H]1[C@](C#N)(c1ccccc1)C1CCN(CC2CN(c3ccc(C#N)cc3)C2)CC1 (racemic) | 32 nM | 3900 nM | 102 nM | 
